What was measured:
[1] = human gut metagenome, 24 h, 2 µM
[2] = human gut metagenome, 24 h, 2 µM; remark: listed apart in the source
[3] = (§1) The drug is tested on Z-017 corresponding to mouse gut metagenome with ENA study accession number: PRJEB37062 and ENA sample accession number: ERS12561816 for biotransformation under anaerobic condition. The drug concentrations were measured over 9 timepoints collected between 0 and 24 hours of incubation by liquid-chromatography-coupled mass spectrometry (LC–MS); details: 2 µM
[4] = human gut metagenome, 24 h, 2 µM; remark: listed apart in the source
[5] = human gut metagenome, 24 h, 2 µM; remark: listed apart in the source
[6] = as §1, with “WLS-310” for “Z-017”, “human” for “mouse”, “ERS12561785” for “ERS12561816”; details: 2 µM
[7] = human gut metagenome, 24 h, 2 µM; remark: listed apart in the source
[8] = human gut metagenome, 24 h, 2 µM; remark: listed apart in the source
[9] = human gut metagenome, 24 h, 2 µM; remark: listed apart in the source
[10] = as §1, with “WLS-069” for “Z-017”, “human” for “mouse”, “ERS12561748” for “ERS12561816”; details: 2 µM
[11] = as §1, with “Z-026” for “Z-017”, “to” for “to mouse gut”, “ERS12561825” for “ERS12561816”; details: 2 µM
[12] = as §1, with “Z-004” for “Z-017”, “to” for “to mouse gut”, “ERS12561804” for “ERS12561816”; details: 2 µM
[13] = as §1, with “WLS-039” for “Z-017”, “human” for “mouse”, “ERS12561746” for “ERS12561816”; details: 2 µM
[14] = as §1, with “WLS-073” for “Z-017”, “human” for “mouse”, “ERS12561749” for “ERS12561816”; details: 2 µM
[15] = as §1, with “WLS-240” for “Z-017”, “human” for “mouse”, “ERS12561773” for “ERS12561816”; details: 2 µM
[16] = as §1, with “WLS-220” for “Z-017”, “human” for “mouse”, “ERS12561769” for “ERS12561816”; details: 2 µM
[17] = as §1, with “WLS-010” for “Z-017”, “human” for “mouse”, “ERS12561743” for “ERS12561816”; details: 2 µM
[18] = human gut metagenome, 24 h, 2 µM; remark: listed apart in the source
[19] = as §1, with “WLS-052” for “Z-017”, “human” for “mouse”, “ERS12561747” for “ERS12561816”; details: 2 µM
[20] = human gut metagenome, 24 h, 2 µM; remark: listed apart in the source
Note: call rule not given here.

## CC(=O)OCC(=O)[C@@]1(O)[C@@H](C)C[C@H]2[C@@H]3CCC4=CC(=O)C=C[C@]4(C)[C@@]3(F)[C@@H](O)C[C@@]21C [BETAMETHASONE ACETATE]
[1]
  Bacterial Biotransformation: Compound metabolized
[2]
  Bacterial Biotransformation: Compound metabolized
[3]
  Bacterial Biotransformation: Compound metabolized
[4]
  Bacterial Biotransformation: Compound metabolized
[5]
  Bacterial Biotransformation: Compound metabolized
[6]
  Bacterial Biotransformation: Compound metabolized
[7]
  Bacterial Biotransformation: Compound metabolized
[8]
  Bacterial Biotransformation: Compound metabolized
[9]
  Bacterial Biotransformation: Compound metabolized
[10]
  Bacterial Biotransformation: Compound metabolized
[11]
  Bacterial Biotransformation: Compound metabolized
[12]
  Bacterial Biotransformation: Compound NOT metabolized
[13]
  Bacterial Biotransformation: Compound metabolized
[14]
  Bacterial Biotransformation: Compound NOT metabolized
[15]
  Bacterial Biotransformation: Compound metabolized
[16]
  Bacterial Biotransformation: Compound metabolized
[17]
  Bacterial Biotransformation: Compound metabolized
[18]
  Bacterial Biotransformation: Compound metabolized
[19]
  Bacterial Biotransformation: Compound metabolized
[20]
  Bacterial Biotransformation: Compound metabolized

## CO[C@]12C[C@@H](COC(=O)c3cncc(Br)c3)CN(C)[C@@H]1Cc1cn(C)c3cccc2c13 [NICERGOLINE]
[1]
  Bacterial Biotransformation: Compound metabolized
[2]
  Bacterial Biotransformation: Compound NOT metabolized
[3]
  Bacterial Biotransformation: Compound NOT metabolized
[4]
  Bacterial Biotransformation: Compound NOT metabolized
[5]
  Bacterial Biotransformation: Compound NOT metabolized
[6]
  Bacterial Biotransformation: Compound NOT metabolized
[7]
  Bacterial Biotransformation: Compound NOT metabolized
[8]
  Bacterial Biotransformation: Compound NOT metabolized
[9]
  Bacterial Biotransformation: Compound NOT metabolized
[10]
  Bacterial Biotransformation: Compound NOT metabolized
[11]
  Bacterial Biotransformation: Compound metabolized
[12]
  Bacterial Biotransformation: Compound metabolized
[13]
  Bacterial Biotransformation: Compound metabolized
[14]
  Bacterial Biotransformation: Compound metabolized
[15]
  Bacterial Biotransformation: Compound NOT metabolized
[16]
  Bacterial Biotransformation: Compound NOT metabolized
[17]
  Bacterial Biotransformation: Compound metabolized
[18]
  Bacterial Biotransformation: Compound NOT metabolized
[19]
  Bacterial Biotransformation: Compound metabolized
[20]
  Bacterial Biotransformation: Compound NOT metabolized

## CCCCc1nc(Cl)c(CO)n1Cc1ccc(-c2ccccc2-c2nn[nH]n2)cc1 [LOSARTAN]
[1]
  Bacterial Biotransformation: Compound metabolized
[2]
  Bacterial Biotransformation: Compound NOT metabolized
[3]
  Bacterial Biotransformation: Compound NOT metabolized
[4]
  Bacterial Biotransformation: Compound metabolized
[5]
  Bacterial Biotransformation: Compound metabolized
[6]
  Bacterial Biotransformation: Compound metabolized
[7]
  Bacterial Biotransformation: Compound metabolized
[8]
  Bacterial Biotransformation: Compound metabolized
[9]
  Bacterial Biotransformation: Compound metabolized
[10]
  Bacterial Biotransformation: Compound metabolized
[11]
  Bacterial Biotransformation: Compound NOT metabolized
[12]
  Bacterial Biotransformation: Compound NOT metabolized
[13]
  Bacterial Biotransformation: Compound NOT metabolized
[14]
  Bacterial Biotransformation: Compound NOT metabolized
[15]
  Bacterial Biotransformation: Compound metabolized
[16]
  Bacterial Biotransformation: Compound metabolized
[17]
  Bacterial Biotransformation: Compound metabolized
[18]
  Bacterial Biotransformation: Compound metabolized
[19]
  Bacterial Biotransformation: Compound NOT metabolized
[20]
  Bacterial Biotransformation: Compound metabolized

## CCOC(=O)[C@H](CCc1ccccc1)N[C@@H](C)C(=O)N1[C@H](C(=O)O)C[C@H]2CCCC[C@@H]21 [TRANDOLAPRIL]
[1]
  Bacterial Biotransformation: Compound NOT metabolized
[2]
  Bacterial Biotransformation: Compound metabolized
[3]
  Bacterial Biotransformation: Compound NOT metabolized
[4]
  Bacterial Biotransformation: Compound NOT metabolized
[5]
  Bacterial Biotransformation: Compound metabolized
[6]
  Bacterial Biotransformation: Compound metabolized
[7]
  Bacterial Biotransformation: Compound metabolized
[8]
  Bacterial Biotransformation: Compound metabolized
[9]
  Bacterial Biotransformation: Compound metabolized
[10]
  Bacterial Biotransformation: Compound metabolized
[11]
  Bacterial Biotransformation: Compound NOT metabolized
[12]
  Bacterial Biotransformation: Compound metabolized
[13]
  Bacterial Biotransformation: Compound metabolized
[14]
  Bacterial Biotransformation: Compound metabolized
[15]
  Bacterial Biotransformation: Compound metabolized
[16]
  Bacterial Biotransformation: Compound metabolized
[17]
  Bacterial Biotransformation: Compound metabolized
[18]
  Bacterial Biotransformation: Compound metabolized
[19]
  Bacterial Biotransformation: Compound metabolized
[20]
  Bacterial Biotransformation: Compound metabolized

## CN1CCc2c(c3ccccc3n2Cc2ccccc2)C1.CN1CCc2c(c3ccccc3n2Cc2ccccc2)C1.O=S(=O)(O)c1cccc2c(S(=O)(=O)O)cccc12
[1]
  Bacterial Biotransformation: Compound metabolized
[2]
  Bacterial Biotransformation: Compound NOT metabolized
[3]
  Bacterial Biotransformation: Compound NOT metabolized
[4]
  Bacterial Biotransformation: Compound NOT metabolized
[5]
  Bacterial Biotransformation: Compound NOT metabolized
[6]
  Bacterial Biotransformation: Compound NOT metabolized
[7]
  Bacterial Biotransformation: Compound NOT metabolized
[8]
  Bacterial Biotransformation: Compound NOT metabolized
[9]
  Bacterial Biotransformation: Compound NOT metabolized
[10]
  Bacterial Biotransformation: Compound NOT metabolized
[11]
  Bacterial Biotransformation: Compound NOT metabolized
[12]
  Bacterial Biotransformation: Compound NOT metabolized
[13]
  Bacterial Biotransformation: Compound metabolized
[14]
  Bacterial Biotransformation: Compound NOT metabolized
[15]
  Bacterial Biotransformation: Compound NOT metabolized
[16]
  Bacterial Biotransformation: Compound metabolized
[17]
  Bacterial Biotransformation: Compound NOT metabolized
[18]
  Bacterial Biotransformation: Compound NOT metabolized
[19]
  Bacterial Biotransformation: Compound NOT metabolized
[20]
  Bacterial Biotransformation: Compound NOT metabolized

## CN(C)C(=O)C(CCN1CCC(O)(c2ccc(Cl)cc2)CC1)(c1ccccc1)c1ccccc1 [LOPERAMIDE]
[1]
  Bacterial Biotransformation: Compound metabolized
[2]
  Bacterial Biotransformation: Compound metabolized
[3]
  Bacterial Biotransformation: Compound NOT metabolized
[4]
  Bacterial Biotransformation: Compound metabolized
[5]
  Bacterial Biotransformation: Compound metabolized
[6]
  Bacterial Biotransformation: Compound metabolized
[7]
  Bacterial Biotransformation: Compound metabolized
[8]
  Bacterial Biotransformation: Compound metabolized
[9]
  Bacterial Biotransformation: Compound metabolized
[10]
  Bacterial Biotransformation: Compound metabolized
[11]
  Bacterial Biotransformation: Compound NOT metabolized
[12]
  Bacterial Biotransformation: Compound metabolized
[13]
  Bacterial Biotransformation: Compound metabolized
[14]
  Bacterial Biotransformation: Compound NOT metabolized
[15]
  Bacterial Biotransformation: Compound metabolized
[16]
  Bacterial Biotransformation: Compound metabolized
[17]
  Bacterial Biotransformation: Compound metabolized
[18]
  Bacterial Biotransformation: Compound metabolized
[19]
  Bacterial Biotransformation: Compound metabolized
[20]
  Bacterial Biotransformation: Compound metabolized

## CCCCC(=O)N(Cc1ccc(-c2ccccc2-c2nnn[nH]2)cc1)[C@H](C(=O)O)C(C)C
[1]
  Bacterial Biotransformation: Compound metabolized
[2]
  Bacterial Biotransformation: Compound metabolized
[3]
  Bacterial Biotransformation: Compound NOT metabolized
[4]
  Bacterial Biotransformation: Compound metabolized
[5]
  Bacterial Biotransformation: Compound metabolized
[6]
  Bacterial Biotransformation: Compound metabolized
[7]
  Bacterial Biotransformation: Compound metabolized
[8]
  Bacterial Biotransformation: Compound metabolized
[9]
  Bacterial Biotransformation: Compound metabolized
[10]
  Bacterial Biotransformation: Compound metabolized
[11]
  Bacterial Biotransformation: Compound NOT metabolized
[12]
  Bacterial Biotransformation: Compound NOT metabolized
[13]
  Bacterial Biotransformation: Compound metabolized
[14]
  Bacterial Biotransformation: Compound NOT metabolized
[15]
  Bacterial Biotransformation: Compound metabolized
[16]
  Bacterial Biotransformation: Compound NOT metabolized
[17]
  Bacterial Biotransformation: Compound metabolized
[18]
  Bacterial Biotransformation: Compound metabolized
[19]
  Bacterial Biotransformation: Compound metabolized
[20]
  Bacterial Biotransformation: Compound metabolized

## CN1CC(=O)N2[C@H](c3ccc4c(c3)OCO4)c3[nH]c4ccccc4c3C[C@@H]2C1=O
[1]
  Bacterial Biotransformation: Compound NOT metabolized
[2]
  Bacterial Biotransformation: Compound metabolized
[3]
  Bacterial Biotransformation: Compound NOT metabolized
[4]
  Bacterial Biotransformation: Compound metabolized
[5]
  Bacterial Biotransformation: Compound metabolized
[6]
  Bacterial Biotransformation: Compound metabolized
[7]
  Bacterial Biotransformation: Compound NOT metabolized
[8]
  Bacterial Biotransformation: Compound metabolized
[9]
  Bacterial Biotransformation: Compound metabolized
[10]
  Bacterial Biotransformation: Compound metabolized
[11]
  Bacterial Biotransformation: Compound NOT metabolized
[12]
  Bacterial Biotransformation: Compound metabolized
[13]
  Bacterial Biotransformation: Compound NOT metabolized
[14]
  Bacterial Biotransformation: Compound NOT metabolized
[15]
  Bacterial Biotransformation: Compound metabolized
[16]
  Bacterial Biotransformation: Compound metabolized
[17]
  Bacterial Biotransformation: Compound metabolized
[18]
  Bacterial Biotransformation: Compound metabolized
[19]
  Bacterial Biotransformation: Compound metabolized
[20]
  Bacterial Biotransformation: Compound metabolized
